What all share (format): cell-based
For experiment [1], the system named is HepG2 cells. Briefly: Measurement of cholesterol synthesis inhibitory ability. The conditions noted are these: for Cholesterol (100 μM) aver.: 100 μM compound; for Cholesterol (100 μM) aver. / Cholesterol (500 μM) aver.: 24 hours, HepG2 cells, content of cholesterol formed, lower value = stronger inhibition; for Cholesterol (500 μM) aver.: 500 μM compound. The procedure: (§1) 2 mM metformin was used as a comparative compound for each of the plates (control group).
A cholesterol synthesis inhibitory ability, which is an important function of AMPK (AMP-activated protein kinase), was measured using HepG2 cells (ATCC: American Type Culture Collection) as a hepatic cell model according to the following procedure.
The hepatic cell model HepG2 cells were cultured in 1% serum-containing media (DMEM (Gibco), FBS (Gibco)) for 24 hours, and then treated with 100 μM or 500 μM of each of the compounds prepared in Examples for 24 hours. Then, the cells were disrupted with a lysis solution (0.1 M potassium phosphate, pH 7.4, 0.05 M NaCl, 5 mM cholic acid, 0.1% Triton X-100 (Sigma)). To the disrupted cells was added the same volume of a reaction solution (2 U/ml of a cholesterol oxidizing agent, 2 U/ml of a peroxidase, 0.2 U/ml of a cholesterol esterase, and 300 μM of Amplex red as a fluorescent factor (Molecular Probe)), which was allowed to react at 37° C. for 30 minutes. After completion of the reaction, the content of cholesterol formed in the cell lysates was measured at a wavelength of 560/590 nm (ex/em) using a fluorescence microscope.
A lower measurement value means an increased cholesterol synthesis inhibitory ability.

The subject of experiment [2] is HepG2 cells. As to the kind of experiment: Measurement of triglyceride synthesis inhibitory ability. The conditions noted are these: 24 hours, HepG2 cells, content of triglyceride formed, lower value = stronger inhibition; for Triglyceride (100 μM) aver.: 100 μM compound; for Triglyceride (500 μM) aver.: 500 μM compound. The procedure: as §1
HepG2 cells (ATCC: American Type Culture Collection) were cultured in 1% serum-containing media (DMEM (Gibco), FBS (Gibco)) for 24 hours, and then treated with 100 μM or 500 μM of each of the compounds prepared in Examples for 24 hours. Then, the cells were disrupted with a lysis solution (0.1 M potassium phosphate, pH 7.4, 0.05 M NaCl, 5 mM cholic acid, 0.1% Triton X-100). To the disrupted cells was added the same volume of a reaction solution (0.76 U/ml of a glycerol kinase (Asan Pharmaceutical Co., Ltd.), […] of a peroxidase (Asan Pharmaceutical Co., Ltd.), 22.2 U/ml of a glycerol oxidizing agent (Asan Pharmaceutical Co., Ltd.), and 300 μM of Amplex red as a fluorescent factor (Molecular Probe)), which was allowed to react at 37° C. for 30 minutes. After completion of the reaction, the content of triglyceride formed in the cell lysates was measured at a wavelength of 560/590 nm (ex/em) using a fluorescence microscope.
A lower measurement value means an increased triglyceride synthesis inhibitory ability.

The subject of experiment [3] is HepG2 cells. As to the kind of experiment: Measurement of gluconeogenesis inhibitory ability. The conditions noted are these: Homo sapiens, HepG2, 24 h, 100 μM compound, 24 hours, HepG2 cells; content of glucose formed from 14C-lactate; lower value = stronger inhibition; read-out: Gluconeogenesis inhibition (100 μM) aver. The method, then:
as §1
HepG2 cells (ATCC: American Type Culture Collection) were cultured in 10% serum-containing high glucose media, transferred to no serum-containing low glucose media (DMEM (Gibco), FBS (Gibco)), and then treated with 100 μM of each of the compounds for 24 hours. Then, the cells were treated with 0.5 μCi ^14C-lactate (Amersham Pharmacia) and 10 mM L-lactate (Sigma), and cultured for 4 hours. After cultivation, the media were removed therefrom, and the cells were washed with PBS, treated with 0.1N NaOH and kept at room temperature for 1 hour. Then, the cells were neutralized with 1N HCl, and the content of glucose formed in the cells was measured with a liquid scintillation counter.
A lower measurement value means an increased gluconeogenesis inhibitory ability.

Molecules are shown by their SMILES. Structures can show the parent of a compound that is named as a salt.

Take `CC(C)N=C(NCc1ccc2c(c1)OCO2)NC(=N)N.Cl` [Example 22, N1-benzo[1,3]dioxol-5-ylmethyl-N2-isopropyl biguanide hydrochloride]: in experiment [1], the “Cholesterol (100 μM) aver.” value worked out at 63.99 and the “Cholesterol (500 μM) aver.” value amounted to 34.97. Further, in experiment [2], the “Triglyceride (100 μM) aver.” value is 78.51 and the “Triglyceride (500 μM) aver.” value stood at 60.13. Besides, in experiment [3], the activity at 100 µM turned out to be 83%.

For the compound `CCN=C(NCc1ccc2c(c1)OCO2)NC(=N)N.Cl` [Example 1, N1-benzo[1,3]dioxol-5-ylmethyl-N2-ethyl biguanide hydrochloride], in experiment [1], the “Cholesterol (100 μM) aver.” value stood at 66.3 and the “Cholesterol (500 μM) aver.” value was found to be 50.8. For the same compound, in experiment [2], the “Triglyceride (100 μM) aver.” value amounted to 98.6 and the “Triglyceride (500 μM) aver.” value was found to be 49.6. Further, the activity at 100 µM in experiment [3] was determined as 89.8%.

Regarding `Cl.N=C(N)NC(=NCc1ccc(F)cc1)NCc1ccc2c(c1)OCO2` [Example 43, N1-benzo[1,3]dioxol-5-ylmethyl-N2-(4-fluorobenzyl)biguanide hydrochloride], in experiment [1], the “Cholesterol (100 μM) aver.” value came out at 73.10 and the “Cholesterol (500 μM) aver.” value is reported as 47.65. In addition, in experiment [2], the “Triglyceride (100 μM) aver.” value is reported as 82.02 and the “Triglyceride (500 μM) aver.” value is given as 63.67. The activity at 100 µM in experiment [3] worked out at 83.5%.

Turning to `COc1cc(N=C(NCc2ccc3c(c2)OCO3)NC(=N)N)cc(OC)c1OC.Cl` [Example 24, N1-benzo[1,3]dioxol-5-ylmethyl-N2-(3,4,5-trimethoxyphenyl)biguanide hydrochloride], in experiment [1], the “Cholesterol (100 μM) aver.” value is listed as 65.36 and the “Cholesterol (500 μM) aver.” value was 31.14. Also, in experiment [2], the “Triglyceride (100 μM) aver.” value amounted to 80.30 and the “Triglyceride (500 μM) aver.” value is 60.08. Also, in experiment [3], the activity at 100 µM amounted to 88.7%.

For the compound `COCCN=C(NCc1ccc2c(c1)OCO2)NC(=N)N.Cl` [Example 31, N1-benzo[1,3]dioxol-5-ylmethyl-N2-(2-methoxyethyl)biguanide hydrochloride], in experiment [1], the “Cholesterol (100 μM) aver.” value was determined as 84.45 and the “Cholesterol (500 μM) aver.” value is reported as 69.16. Besides, in experiment [2], the “Triglyceride (100 μM) aver.” value came out at 74.51 and the “Triglyceride (500 μM) aver.” value turned out to be 73.00. Further, the activity at 100 µM in experiment [3] was found to be 100%.

In the case of `COc1cc(N=C(NCc2ccc3c(c2)OCO3)NC(=N)N)cc(OC)c1.Cl` [Example 26, N1-benzo[1,3]dioxol-5-ylmethyl-N2-(3,5-dimethoxyphenyl)biguanide hydrochloride], in experiment [1], the “Cholesterol (100 μM) aver.” value amounted to 61.86 and the “Cholesterol (500 μM) aver.” value is reported as 17.53. Moreover, in experiment [2], the “Triglyceride (100 μM) aver.” value amounted to 86.94 and the “Triglyceride (500 μM) aver.” value is recorded as 21.88. Further, the activity at 100 µM in experiment [3] was determined as 87.6%.

Take `Cc1ccc(CN=C(NCc2ccc3c(c2)OCO3)NC(=N)N)cc1.Cl` [Example 11, N1-benzo[1,3]dioxol-5-ylmethyl-N2-(4-methylbenzyl)biguanide hydrochloride]: in experiment [1], the “Cholesterol (100 μM) aver.” value is listed as 32.34. Further, in experiment [2], the “Triglyceride (100 μM) aver.” value was 7.49. For the same compound, the activity at 100 µM in experiment [3] was 1.81%.

Take `CC(C)CN=C(NCc1ccc2c(c1)OCO2)NC(=N)N.Cl` [Example 23, N1-benzo[1,3]dioxol-5-ylmethyl-N2-isobutyl biguanide hydrochloride]: in experiment [1], the “Cholesterol (100 μM) aver.” value is on record as 68.02 and the “Cholesterol (500 μM) aver.” value was determined as 36.29. In addition, in experiment [2], the “Triglyceride (100 μM) aver.” value is given as 84.58 and the “Triglyceride (500 μM) aver.” value is 59.80. Also, in experiment [3], the activity at 100 µM came out at 100%.

With `Cl.N=C(N)NC(=Nc1cccc(C(F)(F)F)c1)NCc1ccc2c(c1)OCO2` [Example 10, N1-benzo[1,3]dioxol-5-ylmethyl-N2-(3-trifluoromethylphenyl)biguanide hydrochloride], the “Cholesterol (100 μM) aver.” value in experiment [1] turned out to be 33.41. Moreover, in experiment [2], the “Triglyceride (100 μM) aver.” value is recorded as 11.52. Further, in experiment [3], the activity at 100 µM came out at 2.76%.

Regarding `COc1ccc(N=C(NCc2ccc3c(c2)OCO3)NC(=N)N)cc1.Cl` [Example 15, N1-benzo[1,3]dioxol-5-ylmethyl-N2-(4-methoxyphenyl)biguanide hydrochloride], in experiment [1] (100 μM compound versus 2 mM metformin), the “effect in inhibiting cholesterol synthesis better than that of the control group” value is reported as “at least 20 times”. The “Cholesterol (100 μM) aver.” value in experiment [1] is 52.95. Besides, in experiment [2], the “Triglyceride (100 μM) aver.” value is 104.17. Besides, the activity at 100 µM in experiment [3] is 75.6%.

`Cl.N=C(N)NC(=NC1CCCCCC1)NCc1ccc2c(c1)OCO2` [Example 20, N1-benzo[1,3]dioxol-5-ylmethyl-N2-cycloheptyl biguanide hydrochloride]: in experiment [1], the “Cholesterol (100 μM) aver.” value is recorded as 31.37 and the “Cholesterol (500 μM) aver.” value was −14.69. In experiment [2], the “Triglyceride (100 μM) aver.” value stood at 99.89 and the “Triglyceride (500 μM) aver.” value came to 41.32. The activity at 100 µM in experiment [3] turned out to be 39.4%.

Consider `Cl.N=C(N)NC(=NC1CCCCC1)NCc1ccc2c(c1)OCO2` [Example 2, N1-benzo[1,3]dioxol-5-ylmethyl-N2-cyclohexyl biguanide hydrochloride], for which, in experiment [1], the “Cholesterol (100 μM) aver.” value was 43.7 and the “Cholesterol (500 μM) aver.” value was 15.6. In experiment [2], the “Triglyceride (100 μM) aver.” value came out at 108.9 and the “Triglyceride (500 μM) aver.” value was found to be 26.9. For the same compound, the activity at 100 µM in experiment [3] came out at 95.2%.

`Cl.N=C(N)NC(=Nc1cc(Cl)cc(Cl)c1)NCc1ccc2c(c1)OCO2` [Example 34, N1-benzo[1,3]dioxol-5-ylmethyl-N2-(3,5-dichlorophenyl)biguanide hydrochloride]: in experiment [1], the “Cholesterol (100 μM) aver.” value is recorded as 15.56 and the “Cholesterol (500 μM) aver.” value was 39.12. For the same compound, in experiment [2], the “Triglyceride (100 μM) aver.” value was 21.41 and the “Triglyceride (500 μM) aver.” value came to 8.80. The activity at 100 µM in experiment [3] came to 2.37%.

With `Cl.N=C(N)NC(=NC12CC3CC(CC(C3)C1)C2)NCc1ccc2c(c1)OCO2` [Example 27, N1-benzo[1,3]dioxol-5-ylmethyl-N2-(1-adamantyl)biguanide hydrochloride], in experiment [1], the “Cholesterol (100 μM) aver.” value was determined as 64.82 and the “Cholesterol (500 μM) aver.” value is 45.24. Further, in experiment [2], the “Triglyceride (100 μM) aver.” value is 67.58 and the “Triglyceride (500 μM) aver.” value amounted to 11.48. Further, the activity at 100 µM in experiment [3] was 31.4%.

Consider `Cl.N=C(N)NC(=Nc1ccccc1)NCc1ccc2c(c1)OCO2` [Example 45, N1-benzo[1,3]dioxol-5-ylmethyl-N2-phenyl biguanide hydrochloride], for which, in experiment [1], the “Cholesterol (100 μM) aver.” value was 77.21 and the “Cholesterol (500 μM) aver.” value came out at 23.24. In experiment [2], the “Triglyceride (100 μM) aver.” value was 96.12 and the “Triglyceride (500 μM) aver.” value was 35.45. The activity at 100 µM in experiment [3] is 117%.

As for `N=C(N)NC(=NCCc1ccccc1)NCc1ccc2c(c1)OCO2` [Example 7, N1-benzo[1,3]dioxol-5-ylmethyl-N2-(phenethyl)biguanide hydrochloride], in experiment [1], the “Cholesterol (100 μM) aver.” value is on record as 23.6 and the “Cholesterol (500 μM) aver.” value is 12.9. Moreover, in experiment [2], the “Triglyceride (100 μM) aver.” value stood at 77.1 and the “Triglyceride (500 μM) aver.” value came out at 11.8. In addition, the activity at 100 µM in experiment [3] was 118%.

For the compound `CCCCCN=C(NCc1ccc2c(c1)OCO2)NC(=N)N.Cl` [Example 40, N1-benzo[1,3]dioxol-5-ylmethyl-N2-pentyl biguanide hydrochloride], in experiment [1], the “Cholesterol (100 μM) aver.” value is recorded as 57.36 and the “Cholesterol (500 μM) aver.” value is 27.89. Moreover, in experiment [2], the “Triglyceride (100 μM) aver.” value is 101.4 and the “Triglyceride (500 μM) aver.” value was 50.00. Besides, in experiment [3], the activity at 100 µM was found to be 84.6%.

The values above are taken from patent US8642647B2, “N1-benzo[1,3]dioxol-5-ylmethyl-N2-substituted biguanide derivative, preparation method thereof, and pharmaceutical composition containing same” (Hanall Biopharma Co., Ltd., priority 2008, dated 2014).
